Counter-ions that a name gives are not always drawn.
tested on: IL-2 production; assay: Inhibition of IL-2 production in PHA-activated Jurkat cells (ELISA); assay type: cell-based; conditions: Homo sapiens, PHA 2.5 μg/mL, 20 hours at 37° C., IL-2 ELISA
Description: Jurkat cells were placed in a 96 well plate (0.5 million cells per well in 1% FBS medium) then a test compound of this invention was added at different concentrations. After 10 minutes, the cells were activated with PHA (final concentration 2.5 μg/mL) and incubated for 20 hours at 37° C. under CO2. The final volume was 200 μL. Following incubation, the cells were centrifuged and the supernatants collected and stored at −70° C. prior to assaying for IL-2 production. A commercial ELISA kit (IL-2 Eli-pair, Diaclone Research, Besancon, France) was used to detect production of IL-2, from which dose response curves were obtained. The IC50 value was calculated as the concentration at which 50% of maximum IL-2 production after stimulation was inhibited versus a non-stimulation control.

| IC50 | Compound |
| --- | --- |
| 30 nM | CCOC(=O)N1CCC(C)=C(c2ccc(NC(=O)c3c(F)cccc3F)nc2)C1 [Compound 1, ethyl 3-(6-(2,6-difluorobenzamido)pyridin-3-yl)-4-methyl-5,6-dihydropyridine-1(2H)-carboxylate] |
| 934 nM | CC1=C(c2ccc(NC(=O)c3c(F)cccc3F)nc2)CN(C(=O)c2ccccn2)CC1 [Compound 4, 2,6-difluoro-N-(5-(4-methyl-1-picolinoyl-1,2,5,6-tetrahydropyridin-3-yl)pyridin-2-yl)benzamide hydrochloride] |
| 38 nM | CC1=C(c2cnc(NC(=O)c3c(F)cccc3F)cn2)CN(c2ncccn2)CC1 [Compound 2, 2,6-difluoro-N-(5-(4-methyl-1-(pyrimidin-2-yl)-1,2,5,6-tetrahydropyridin-3-yl)pyrazin-2-yl)benzamide hydrochloride] |
| 66 nM | CCOC(=O)N1CCC(Cl)=C(c2ccc(NC(=O)c3c(F)cccc3F)cc2)C1 [Compound 6, ethyl 4-chloro-3-(4-(2,6-difluorobenzamido)phenyl)-5,6-dihydropyridine-1(2H)-carboxylate] |

The next lines start with the compound.

| Compound | IC50 |
| --- | --- |
| C=CCOC(=O)N1CCC(c2ccc(NC(=O)c3c(F)cccc3F)cc2)=C(COC(C)=O)C1 [Compound 3, allyl 3-(acetoxymethyl)-4-(4-(2,6-difluorobenzamido)phenyl)-5,6-dihydropyridine-1(2H)-carboxylate] | > 1000 nM |
| CCOC(=O)N1CCC(c2ccc(NC(=O)c3c(F)cccc3F)cc2)=C(COC(C)=O)C1 [Compound 5, ethyl 3-(acetoxymethyl)-4-(4-(2,6-difluorobenzamido)phenyl)-5,6-dihydropyridine-1(2H)-carboxylate] | > 1000 nM |
